# Test results taken from patent US8557816B2, “Aurora kinase modulators and method of use” (Amgen Inc., priority 2007, dated 2013).
# How the values were obtained:
# [1] = target: T1, AuroraA-TPX2 (Homo sapiens, UniProt O14965); assay: AuroraA-TPX2 Homogeneous Time Resolved Fluorescent (HTRF) kinase assay; type: biochemical; settings: average; read-out: AurA_IC50_IP (uM Avg)
# T1 construct: 20 μL of AuroraA-TPX2 KD GST for a final volume of about 41 μL; GST
# T1 sequence (O14965 133-383 limits assumed): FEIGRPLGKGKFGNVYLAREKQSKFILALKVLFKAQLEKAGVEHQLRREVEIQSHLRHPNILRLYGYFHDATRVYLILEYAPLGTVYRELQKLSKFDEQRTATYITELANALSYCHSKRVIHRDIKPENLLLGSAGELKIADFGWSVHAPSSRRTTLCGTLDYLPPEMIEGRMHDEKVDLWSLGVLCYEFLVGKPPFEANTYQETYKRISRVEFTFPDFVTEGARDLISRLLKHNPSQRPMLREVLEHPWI
# T1 sequence (Q9ULW0 1-43 partner limits assumed): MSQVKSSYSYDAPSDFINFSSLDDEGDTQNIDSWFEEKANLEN
# Summary of the method: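 HTRF read-out (Eu 615 nm to APC 655 nm) of phosphorylated biotin-PLK, detected with 0.02 nM europium anti-phosphoPLK antibody and 0.0005 mg/mL SA-APC after overnight equilibration.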
# [2] = target: T2, AuroraB (Homo sapiens, UniProt Q96GD4); assay: AuroraB Homogeneous Time Resolved Fluorescent (HTRF) kinase assay; type: biochemical; settings: average; read-out: AurB_IC50_IP (uM Avg)
# T2 construct: 20 μL of AuroraB FL H is for a final volume of 41 μL; His
# T2 sequence (Q96GD4 whole entry): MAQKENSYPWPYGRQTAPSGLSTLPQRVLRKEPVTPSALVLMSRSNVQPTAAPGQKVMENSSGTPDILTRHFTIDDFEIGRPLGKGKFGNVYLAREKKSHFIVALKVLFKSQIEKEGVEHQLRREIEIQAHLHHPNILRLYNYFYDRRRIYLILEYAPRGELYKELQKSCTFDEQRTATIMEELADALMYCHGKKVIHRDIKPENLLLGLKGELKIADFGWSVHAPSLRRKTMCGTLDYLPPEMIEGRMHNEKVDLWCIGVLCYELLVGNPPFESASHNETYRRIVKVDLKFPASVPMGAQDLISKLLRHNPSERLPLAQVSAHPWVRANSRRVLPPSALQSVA
# Summary of the method: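 Read-out is time-resolved FRET between europium anti-phospho-H3 antibody and streptavidin-APC, added in EDTA buffer to stop the reaction and equilibrated about 60 min (ex 320, em 615 and 655 nm). Preceding reaction: ~90 min, full-length enzyme, ATP, 0.1 μM biotin-Histone H3 substrate, Mg/Mn HEPES buffer pH 7.5.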
SMILES,IC50 [1],IC50 [2]
"COc1cnc2c(Oc3ccc(Nc4nnc(-c5cccc(CO)n5)c5ccccc45)cc3)ccnc2c1 [compound 114, (6-(4-((4-((7-(methyloxy)-1,5-naphthyridin-4-yl)oxy)phenyl)amino)-1-phthalazinyl)-2-pyridinyl)methanol]",0.036 µM,0.005 µM
"Fc1cc(Nc2nnc(-c3ccccc3)c3ccccc23)ccc1Oc1ccnc2ccccc12 [compound 115, N-(3-fluoro-4-(4-quinolinyloxy)phenyl)-4-phenyl-1-phthalazinamine]",0.163 µM,0.006 µM
"COc1cnc2c(Oc3ccc(Nc4nnc(-c5cc(C)ccn5)c5ccccc45)cc3)ccnc2c1 [compound 116, N-(4-((7-(methyloxy)-1,5-naphthyridin-4-yl)oxy)phenyl)-4-(4-methyl-2-pyridinyl)-1-phthalazinamine]",0.062 µM,0.011 µM
"COc1cc2nccc(Oc3ccc(Nc4nnc(-c5cc(C)ccn5)c5ccccc45)cc3)c2cc1OC [compound 117, N-(4-((6,7-bis(methyloxy)-4-quinolinyl)oxy)phenyl)-4-(4-methyl-2-pyridinyl)-1-phthalazinamine]",0.057 µM,0.043 µM
"COc1ccc2c(Oc3ccc(Nc4nnc(-c5cc(C)ccn5)c5ccccc45)cc3)ccnc2c1 [compound 118, N-(4-((7-(methyloxy)-4-quinolinyl)oxy)phenyl)-4-(4-methyl-2-pyridinyl)-1-phthalazinamine]",0.136 µM,0.009 µM
"COc1ccccc1-c1nnc(Nc2ccc(Oc3ccnc4cc(C#N)ccc34)cc2)c2ccccc12 [compound 119, 4-((4-((4-(2-(methyloxy)phenyl)-1-phthalazinyl)amino)phenyl)oxy)-7-quinolinecarbonitrile]",0.175 µM,0.007 µM
"COCc1cccc(-c2nnc(Nc3ccc(Oc4ccnc5cc(OC)cnc45)cc3)c3ccccc23)n1 [compound 120, 4-(6-((methyloxy)methyl)-2-pyridinyl)-N-(4-((7-(methyloxy)-1,5-naphthyridin-4-yl)oxy)phenyl)-1-phthalazinamine]",0.019 µM,0.003 µM
"COc1cc2nccc(Oc3ccc(Nc4nnc(-c5cc(C)ccn5)c5ccccc45)cc3)c2cn1 [compound 121, N-(4-((7-(methyloxy)-1,6-naphthyridin-4-yl)oxy)phenyl)-4-(4-methyl-2-pyridinyl)-1-phthalazinamine]",0.041 µM,0.007 µM
"Cc1ccc(-c2nnc(Nc3ccc(Oc4ccnc5cc(C#N)ccc45)cc3)c3ccccc23)nc1 [compound 122, 4-((4-((4-(5-methyl-2-pyridinyl)-1-phthalazinyl)amino)phenyl)oxy)-7-quinolinecarbonitrile]",0.022 µM,0.003 µM
"COc1cc2ncnc(Oc3ccc(Nc4nnc(-c5cc(C)ccn5)c5ccccc45)cc3)c2cc1OC [compound 123, N-(4-((6,7-bis(methyloxy)-4-quinazolinyl)oxy)phenyl)-4-(4-methyl-2-pyridinyl)-1-phthalazinamine]",0.132 µM,0.015 µM
"COc1cc2nccc(Nc3ccc(Nc4nnc(-c5ccccc5)c5ccccc45)cc3)c2cn1 [compound 124, N-(7-(methyloxy)-1,6-naphthyridin-4-yl)-N′-(4-phenyl-1-phthalazinyl)-1,4-benzenediamine]",0.042 µM,0.002 µM
"COc1cnc2c(Oc3ccc(Nc4nnc(-c5ccc(C)cn5)c5ccccc45)cc3)ccnc2c1 [compound 125, N-(4-((7-(methyloxy)-1,5-naphthyridin-4-yl)oxy)phenyl)-4-(5-methyl-2-pyridinyl)-1-phthalazinamine]",0.018 µM,0.003 µM
"COc1cnc2c(Oc3ccc(Cc4nnc(-c5ccc(C)cc5)c5ccccc45)cc3)ccnc2c1 [compound 126, 3-(methyloxy)-8-((4-((4-(4-methylphenyl)-1-phthalazinyl)methyl)phenyl)oxy)-1,5-naphthyridine]",0.388 µM,0.017 µM
"COc1cc2nccc(Oc3ccc(Nc4nnc(-c5cccc(C)n5)c5ccccc45)cn3)c2cn1 [compound 127, N-(6-((7-(methyloxy)-1,6-naphthyridin-4-yl)oxy)-3-pyridinyl)-4-(6-methyl-2-pyridinyl)-1-phthalazinamine]",0.241 µM,0.009 µM
"COc1cnc2c(Oc3ccc(Nc4nnc(-c5cccc(C)n5)c5ccccc45)cn3)ccnc2c1 [compound 128, N-(6-((7-(methyloxy)-1,5-naphthyridin-4-yl)oxy)-3-pyridinyl)-4-(6-methyl-2-pyridinyl)-1-phthalazinamine]",0.099 µM,0.018 µM
"COc1cncc(-c2nnc(Nc3ccc(Oc4ccnc5cc(OC)cnc45)cc3)c3ccccc23)c1 [compound 129, N-(4-((7-(methyloxy)-1,5-naphthyridin-4-yl)oxy)phenyl)-4-(5-(methyloxy)-3-pyridinyl)-1-phthalazinamine]",0.165 µM,0.014 µM
"COc1cnc2c(Oc3ccc(Nc4nnc(-c5ccncc5OC)c5ccccc45)cc3)ccnc2c1 [compound 130, N-(4-((7-(methyloxy)-1,5-naphthyridin-4-yl)oxy)phenyl)-4-(3-(methyloxy)-4-pyridinyl)-1-phthalazinamine]",0.654 µM,0.1 µM
"COc1cc2nccc(Oc3ccc(Nc4nnc(-c5cccc(OC)n5)c5ccccc45)cc3)c2cn1 [compound 131, N-(4-((7-(methyloxy)-1,6-naphthyridin-4-yl)oxy)phenyl)-4-(6-(methyloxy)-2-pyridinyl)-1-phthalazinamine]",0.019 µM,0.003 µM
"COc1cnc2c(Oc3ccc(Nc4nnc(-c5cccc(COC(C)=O)n5)c5ccccc45)cc3)ccnc2c1 [compound 132, (6-(4-((4-((7-(methyloxy)-1,5-naphthyridin-4-yl)oxy)phenyl)amino)-1-phthalazinyl)-2-pyridinyl)methyl acetate]",0.022 µM,0.005 µM
"Brc1ccc2c(Oc3ccc(Nc4nnc(-c5ccccc5)c5ccccc45)cc3)ccnc2c1 [compound 133, N-(4-((7-bromo-4-quinolinyl)oxy)phenyl)-4-phenyl-1-phthalazinamine]",0.494 µM,0.028 µM
"Brc1ccc2nccc(Oc3ccc(Nc4nnc(-c5ccccc5)c5ccccc45)cc3)c2c1 [compound 134, N-(4-((6-bromo-4-quinolinyl)oxy)phenyl)-4-phenyl-1-phthalazinamine]",0.176 µM,0.024 µM
"COc1cnc2c(Oc3ccc(Nc4nnc(-c5ccccc5)c5ccccc45)nc3)ccnc2c1 [compound 135, N-(5-((7-(methyloxy)-1,5-naphthyridin-4-yl)oxy)-2-pyridinyl)-4-phenyl-1-phthalazinamine]",0.063 µM,0.012 µM
"COc1cnc2c(Oc3ccc(Nc4nnc(-c5ccc6c(c5)CC(C)(C)O6)c5ccccc45)cc3)ccnc2c1 [compound 136, 4-(2,2-dimethyl-2,3-dihydro-1-benzofuran-5-yl)-N-(4-((7-(methyloxy)-1,5-naphthyridin-4-yl)oxy)phenyl)-1-phthalazinamine]",0.037 µM,0.016 µM
"COc1cnc2c(Oc3ccc(Nc4nnc(-c5ccc(OC(C)C)cc5)c5ccccc45)cc3)ccnc2c1 [compound 137, 4-(4-((1-methylethyl)oxy)phenyl)-N-(4-((7-(methyloxy)-1,5-naphthyridin-4-yl)oxy)phenyl)-1-phthalazinamine]",0.091 µM,0.018 µM
"COc1cnc2c(Oc3ccc(Nc4nnc(-c5ccc(C)s5)c5ccccc45)cc3)ccnc2c1 [compound 138, N-(4-((7-(methyloxy)-1,5-naphthyridin-4-yl)oxy)phenyl)-4-(5-methyl-2-thienyl)-1-phthalazinamine]",0.018 µM,0.013 µM
"COc1cccc(-c2nnc(Nc3ccc(Oc4ccnc5cc(OC)cnc45)cc3)c3ccccc23)c1 [compound 139, N-(4-((7-(methyloxy)-1,5-naphthyridin-4-yl)oxy)phenyl)-4-(3-(methyloxy)phenyl)-1-phthalazinamine]",0.018 µM,0.006 µM
"COc1cnc2c(Oc3ccc(Nc4nnc(-c5ccc(Cl)s5)c5ccccc45)cc3)ccnc2c1 [compound 140, 4-(5-chloro-2-thienyl)-N-(4-((7-(methyloxy)-1,5-naphthyridin-4-yl)oxy)phenyl)-1-phthalazinamine]",0.022 µM,0.008 µM
"COc1ccc(-c2nnc(Nc3ccc(Oc4ccnc5cc(C#N)ccc45)cc3)c3ccccc23)cc1 [compound 141, 4-((4-((4-(4-(methyloxy)phenyl)-1-phthalazinyl)amino)phenyl)oxy)-7-quinolinecarbonitrile]",0.019 µM,0.004 µM
"COc1cnc2c(Oc3ccc(Nc4nnc(-c5ccc6sccc6c5)c5ccccc45)cc3)ccnc2c1 [compound 142, 4-(1-benzothien-5-yl)-N-(4-((7-(methyloxy)-1,5-naphthyridin-4-yl)oxy)phenyl)-1-phthalazinamine]",0.008 µM,0.007 µM
"COc1cnc2c(Oc3ccc(Nc4nnc(-c5cc6ccccc6n5C)c5ccccc45)cc3)ccnc2c1 [compound 143, 4-(1-methyl-1H-indol-2-yl)-N-(4-((7-(methyloxy)-1,5-naphthyridin-4-yl)oxy)phenyl)-1-phthalazinamine]",0.012 µM,0.009 µM
